Results as given in Sander's compilation of Henry's law constants (doi:10.1016/1352-2310(94)00256-k).

Assay: Henry solubility constant Hcp at 298.15 K (mol/(m3 Pa))
Settings: reference: Dewulf et al. (1995)

Row | SMILES | Henry solubility constant Hcp
1 | CC(Cl)(Cl)Cl [1,1,1-trichloroethane] | 0.00067
2 | Cc1ccccc1 [methylbenzene] | 0.0018
3 | Cc1cccc(C)c1 [1,3-dimethylbenzene] | 0.0016
4 | Cc1ccc(C)cc1 [1,4-dimethylbenzene] | 0.0017
5 | ClC=C(Cl)Cl [trichloroethene] | 0.0012
6 | ClC(Cl)(Cl)Cl [tetrachloromethane] | 0.00038
7 | ClC(Cl)=C(Cl)Cl [tetrachloroethene] | 0.00069
8 | CCc1ccccc1 [ethylbenzene] | 0.0015
9 | c1ccccc1 [benzene] | 0.0021
10 | Cc1ccccc1C [1,2-dimethylbenzene] | 0.0024
